From patent publication US4525360A, “Anti-psychotic phenylindene derivatives and acid addition salts thereof” (Kefalas A/S, priority 1982, dated 1985)
Counter-ions that a name gives are not always drawn.

Key:
methylphenidate = assay: Methylphenidate antagonism, mice i.p.; assay type: in vivo; conditions: Mus musculus, ip, read-out: MePh Antag. ED50 (ip)
Method: Methylphenidate antagonism (ED50 μmol/kg i.p.)
Perspex observation cages without bottom and lid, consisting of 5 sections each measuring 12×25×30 cm.
Two hours after injection of test substance, methylphenidate, 60 mg/kg, is injected s.c. After administration of methylphenidate the mice are placed in the observation cages, 2 in each cage, where they remain for exactly 1 hour. The cages are placed on corrugated paper, the corrugations facing upwards. It is examined whether the mice have been biting the corrugated paper or not.
The result is stated in fractions: 0/3, 1/3, 2/3 and 3/3 where 0, 1, 2 and 3 are the number of pairs which have not been biting on receipt of the dose in question.

[1] = Catalepsy wire mesh, rat, max.; assay type: in vivo, rats; conditions: Rattus norvegicus, po, 6 h, read-out: Catalep. ED50 (po)
Method: Catalepsy wire mesh, rat, max. (ED50 μmol/kg p.o.)
A vertical wire netting (50 cm×49 cm). The meshes (openings) of the netting are square (1 cm×1 cm). The wire diameter is 2 mm.
The animals are labeled and used in groups of five. The test substance is administered orally (p.o.) at 4 dose levels selected from a fixed dose scale.
The animals are placed in the middle of the vertical wire netting 60, 120, 180, 240, 300 and 360 minutes after administration of the test compound. The animals are considered cataleptic when they remain immobile during a period of 15 seconds. This cataleptic reaction is designated +.
If the rats are "atonic" and passively slide down the wire mesh they are considered not cataleptic. If the animals climb up and down the wire mesh they are nor cataleptic. In both situations the designation - is used.

5-HT, rat fundus strip = assay: 5-HT antagonism, rat fundus strip; conditions: Rattus norvegicus, 10 min, read-out: 5HT rat-fundus-strip IC50
Method: 5-HT antagonism, rat fundus strip
5-hydroxytryptamine (5-HT).
Rats are killed by a blow on the head and exsanguinated. The stomach fundus is removed and carefully cleaned with Krebs solution at 30° C. The fundus is then stretched over a rounded end of a plastic rod about the thickness of a pencil, whereby the longitudinal direction of the muscle fibers is visible. The fundus is halved by carefully cutting in the central line and in the direction of these fibres. Along this incision two strips with a length of 15-25 mm and with width 1.5-2.5 mm are cut, one from each half of the fundus. The mucosa is then carefully removed. A thread is attached to each end of a strip. One thread is fixed to a pin in the bottom of the organ bath and the other thread is fixed to an isotonic transducer. The strip is kept under a tone of 1.5 to 2.0 g. […] Concentration response curves to 5-HT are obtained by adding 5-HT to the bath in increasing concentrations (0.1 ml of 10^-9 M resulting in 1.0×10^-11 M in the bath, 0.2 ml of 10^-9 M resulting in 3.0×10^-11 M, 0.1 ml of 10^-8 M resulting in about 1×10^-10 M, 0.2 ml of 10^-8 M resulting in about 3×10^-10 M--0.2 ml of 10^-4 resulting in about 3×10^-6 M in the bath). Each concentration of 5-HT is allowed to exert its maximal effect (1-10 min) before the next is added. When the maximal response is reached the tissue is carefully washed. The test substance is added to the bath for 10 min. before examining its effect on a new cumulative 5-HT concentration response curve. From the control concentration effect curve the Km for 5-HT is calculated.
The results are recorded as mean percentage inhibition.
Substrate concentration for 5-HT: 1.0×10^-9 M to 1.0×10^-8 M.
Michaelis-Menten constant for 5-HT is estimated each time.

D-2 receptors = biological target: T1, D-2 receptors (Rattus norvegicus, UniProt P61169); assay: 3H-spiroperidol binding to rat striatal membranes (D-2 receptors); conditions: Table 1, read-out: 3H-Spiroperidol bindings DA-2 receptors IC50
T1 construct: The corpora striata are dissected out and homogenized; from tissue; host or cells: rat corpus striatum membranes
Method: 3H-spiroperidol binding to rat striatal membranes (D-2 receptors)
0.1% Ascorbic acid (icecold) made fresh every day
50 mM Tris buffer pH 7.7 (at 25° C.) (icecold) stored in the cold
50 mM Tris buffer pH 7.5 (at 25° C.), containing 0.2% ascorbic acid
(icecold) made fresh every day just before use
Mixed Tris buffer (icecold) made fresh every day just before use
96 ml 50 mM Tris pH 7.5 (at 25° C.) containing ascorbic acid
Whatman GF/B filters 25 mm
Spiroperidol[benzene ring-^3 H] approximately 30 Ci/mmol
from New England Nuclear. (Diluted daily to 5 nM in 0.1% ascorbic acid)
(§1) Rats are killed by guillutination, exsanguinated and their brains removed. The corpora striata are dissected out and homogenized (Ultra Turrax, 10 sec.) in 100 vol (w/v) icecold 50 mM buffer pH 7.7 (at 25° C.). The homogenate is centrifuged twice at 20.000 g (13.000 rpm) for 10 min at 4° C., with rehomogenization (Ultra Turrax, 10 sec.) of the intermediate pellet in fresh buffer. The pellet is homogenized (Ultra Turrax, 10 sec.) in 200 volumes (w/v) of icecold, freshly prepared mixed Tris buffer.
(§2) Incubation tubes in triplicate receive on ice 100 μl of drugs dissolved in 0.1% ascorbic acid, 100 μl of 5 nM^3 H-spiroperidol and 800 μl of the cold tissue suspension . The tubes are incubated at 37° C. for 10 min and rapidly filtered under vacuum through Whatman GF/B filters. The tubes are rinsed with 5 ml and thereafter the filters with 2×5 ml icecold 50 mM Tris buffer, pH 7.7 (at 25° C.). The radioactivity on the filters is determined by liquid scintillation counting after the addition of scintillation liquid (e.g. picofluor-15). The unspecific binding of ^3 H-spiroperidol is determined by incubating the samples with 10^-6M (+)butaclamol.
Each series consists of 15 triple samples (3 controls, 2 containing 10^-6M (+)butaclamol, and two series of test compounds in 5 concentrations).
The means of the controls and (+)butaclamol are calculated.

5-HT2 receptors = biological target: T2, 5-HT2 receptors (Rattus norvegicus, UniProt P14842); assay: 3H-spiroperidol binding to rat cortical membranes (5-HT2 receptors); conditions: Table 1, read-out: 3H-Spiroperidol bindings 5-HT2 receptors IC50
T2 construct: Whole cortex is dissected out and homogenized; from tissue; host or cells: rat whole cortex membranes
Method: ^3 H-spiroperidol binding to rat cortical membranes (5-HT2 Receptors)
50 mM Tris buffer pH 7.7 (at 25° C.) (icecold) stored in the cold: 7.38 gram Trisma®--7.7/l.
Mixed Tris buffer (icecold) made fresh every day jut before use.
10^-5 M Mianserin: 3.01 mg mianserin-HCl/10 ml H2 O, Diluted 1:100.
3×10^-6 M Sulpiride: 3.41 mg sulpiride/10 ml H2 O, Diluted 0.3 ml to 100 ml.
Whatman GF/B filters 25 mm.
Spiroperidol[benzene ring--^3 H--] approx. 30 Ci/mmol from New England Nuclear
(Diluted daily to 5 nM in 3×10^-6 M sulpiride solution).
Ultra Turrax homogenizer.
as §1, with “Whole cortex is” for “The corpora striata are”, “min.” for “min”, “80” for “200”
as §2, with “in water,” for “in 0.1% ascorbic acid,”, “5 nM ^3” for “5 nM^3”, “cold membrane suspension.” for “cold tissue suspension .”, “10 min.” for “10 min”, “of 5 ml of picofluor-15.” for “of scintillation liquid (e.g. picofluor-15).”, “with 10^-6 M mianserine.” for “with 10^-6M (+)butaclamol.”
Each series consist of 15-16 triple samples (3 controls, 2-3 containing 10^-6 mianserine and two series of test compounds in 5 concentrations).
The means of the control samples and of the 10^-6 M mianserine samples are calculated.

T1 sequence (P61169 whole entry): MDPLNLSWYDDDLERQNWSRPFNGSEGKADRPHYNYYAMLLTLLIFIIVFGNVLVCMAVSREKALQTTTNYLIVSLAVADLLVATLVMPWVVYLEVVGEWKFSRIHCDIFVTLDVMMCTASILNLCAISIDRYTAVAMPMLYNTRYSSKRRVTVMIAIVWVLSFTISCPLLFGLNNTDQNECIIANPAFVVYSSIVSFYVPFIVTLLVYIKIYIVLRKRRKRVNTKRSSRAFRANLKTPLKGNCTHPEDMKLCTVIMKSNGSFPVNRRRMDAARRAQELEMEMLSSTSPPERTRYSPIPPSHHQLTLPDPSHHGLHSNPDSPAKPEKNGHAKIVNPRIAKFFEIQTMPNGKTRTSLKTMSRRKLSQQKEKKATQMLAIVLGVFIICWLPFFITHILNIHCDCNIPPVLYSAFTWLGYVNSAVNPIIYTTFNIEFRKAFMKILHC
T2 sequence (P14842 whole entry): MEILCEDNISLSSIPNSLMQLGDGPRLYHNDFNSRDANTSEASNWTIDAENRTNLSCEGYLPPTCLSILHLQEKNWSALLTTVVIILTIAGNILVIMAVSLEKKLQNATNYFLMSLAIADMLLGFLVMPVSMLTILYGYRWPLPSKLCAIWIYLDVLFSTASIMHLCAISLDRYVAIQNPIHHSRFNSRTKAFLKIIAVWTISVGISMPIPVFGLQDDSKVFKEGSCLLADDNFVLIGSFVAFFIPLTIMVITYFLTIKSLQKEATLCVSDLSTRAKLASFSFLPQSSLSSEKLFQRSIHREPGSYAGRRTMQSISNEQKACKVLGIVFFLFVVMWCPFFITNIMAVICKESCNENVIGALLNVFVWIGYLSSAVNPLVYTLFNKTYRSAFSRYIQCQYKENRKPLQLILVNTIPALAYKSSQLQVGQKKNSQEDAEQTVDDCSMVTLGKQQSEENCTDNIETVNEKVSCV

| SMILES | ED50 (methylphenidate) [µmol/kg] | ED50 [1] [µmol/kg] | IC50 (5-HT, rat fundus strip) [nM] | IC50 (D-2 receptors) [nM] | IC50 (5-HT2 receptors) [nM] |
| --- | --- | --- | --- | --- | --- |
| OCCN1CCC(C2=CC(c3ccc(F)cc3)c3ccc(F)cc32)CC1 (centres unmarked) [Lu 19-158, hydrochloride] | 4.2 | 26 | 26 | 12 | 2.8 |
| OCCN1CC=C(C2=CC(c3ccc(F)cc3)c3ccc(C(F)(F)F)cc32)CC1 (centres unmarked) [Lu 20-004, 3-(4'-Fluorophenyl)-1-(1-hydroxyethyl-1,2,3,6-tetrahydropyrid-4-yl)-6-trifluoromethyl-1-indene, hydrobromide] | 1 | 1.3 | 3260 | – | 35 |
| Cc1ccc2c(c1)C(C1CCN(CCO)CC1)=CC2c1ccc(F)cc1 (centres unmarked) [Lu 20-008, 3-(4'-Fluorophenyl)-1-(1-hydroxyethyl-4-piperidyl)-6-methyl-1-indene, hydrochloride] | 0.64 | 2.3 | 16 | 8.9 | 4 |
| O=C(c1ccc(F)cc1)C1CCN(CCn2c(=O)[nH]c3ccccc3c2=O)CC1 [Ketanserin, reference compound] | – | – | > 10000 | 2300 | – |
| OCCN1CCN(CC/C=C2/c3ccccc3Sc3ccc(C(F)(F)F)cc32)CC1 [Cis(Z)-flupentixol, reference compound] | 0.14 | 2.1 | 1050 | – | 13 |
| CSc1ccc2c(c1)C(N1CCN(C)CC1)Cc1ccccc1S2 (centres unmarked) [Methiothepin, reference compound] | 2.5 | 2.3 | 58 | 2.6 | 6.8 |
| CN1CCC(C2=CC(c3ccc(F)cc3)c3ccc(C(F)(F)F)cc32)CC1 (centres unmarked) [Lu 20-071, 3-(4'-Fluorophenyl)-1-(1-methyl-4-piperidyl)-6-trifluoromethyl-1-indene, hydrobromide] | 1.7 | 2 | 1000 | – | 15 |
| O=C1NCCN1CCN1CCC(C2C=C(c3ccc(F)cc3)c3ccc(F)cc32)CC1 (centres unmarked) [Lu 20-053, 6-Fluoro-3-(4'-fluorophenyl)-1-(1-(2-imidazolidinon-1-ylethyl)-4-piperidyl)-2-indene] | 19.5 | > 94 | 69 | 83 | 31 |
| Cc1ccc2c(c1)C(C1=CCN(CCO)CC1)=CC2c1ccc(F)cc1 (centres unmarked) [Lu 19-153, 3-(4'-Fluorophenyl)-1-(1-hydroxyethyl-1,2,3,6-tetrahydropyrid-4-yl)-6-methyl-1-indene, hydrobromide] | 0.39 | 1.4 | 34 | – | 4.6 |
